Read-outs that look alike come from different tables or passages of the source.
How the values were obtained:
[1] = system: ovarian cancer; parameters: method as in earlier work; conditions: patients who failed platinum based chemotherapy; ref Neijt et al, 1991; Kudelka et al, 1996; Ten Bokkel Huinink et al, 1997; cited from earlier work
[2] = clinical; conditions: female, human, in vivo, ip
[3] = system: recurrent ovarian cancer; assay: Tumour responses to IP topotecan; type: in vivo, human
[4] = in vivo
[5] = cited from earlier work
[6] = human, in vivo, ip; for MRT / T1/2: female
[7] = Phase I toxicity of IP topotecan (WHO grading)
[8] = in vitro, 1994, cited from earlier work
[9] = clinical; conditions: female, human, in vivo, ip, 20 mg/m2, Cmax
[10] = female, human, in vivo
[11] = system: DNA topoisomerase I; parameters: method as in Kingsbury et al, 1991; conditions: in vitro; ref Kingsbury et al, 1991; cited from earlier work
[12] = cited from earlier work; remark: listed apart in the source
[13] = system: human tumor colony forming units; parameters: method as in Burris et al, 1992; conditions: in vitro; ref Burris et al, 1992; cited from earlier work
[14] = parameters: method as in Rowinsky et al, 1992; Verweij et al, 1993; Herben et al, 1996; conditions: ref Rowinsky et al, 1992, Verweij et al, 1993, Herben et al, 1996, cited from earlier work

## CC[C@@]1(O)C(=O)OCc2c1cc1n(c2=O)Cc2cc3c(CN(C)C)c(O)ccc3nc2-1 [topotecan, Topotecan]
[1]
  Duration of response: 22-32 weeks
[2]; 5 mg/m2, AUC
  AUC: 81 ng·h/mL
[2]; 5 mg/m2, MRT
  MRT: 7 h
[2]; 5 mg/m2, T1/2
  half-life: 4.6 h
[2]; 10 mg/m2, AUC
  AUC: 107 ng·h/mL
[2]; 10 mg/m2, Cmax
  Cmax: 14 ng/mL
[2]; 10 mg/m2, MRT
  MRT: 6.5 h
[2]; 10 mg/m2, T1/2
  half-life: 3.9 h
[2]; 10 mg/m2, Tmax
  Tmax: 1.7 h
[2]; 15 mg/m2, Tmax
  Tmax: 1.6 h
[2]; 20 mg/m2, MRT
  MRT: 8.1 h
[2]; 20 mg/m2, T1/2
  half-life: 4.4 h
[2]; 20 mg/m2, Tmax
  Tmax: 3 h
[2]; 30 mg/m2, Cmax
  Cmax: 145 ng/mL
[2]; 30 mg/m2, Tmax
  Tmax: 1.8 h
[2]; T1/2
  half-life: 5.2 h
[2]; T1/2 of lactone in this study (discussion)
  half-life: 5.5 h
[2]; Tmax (time to peak plasma level after start of IP administration)
  Tmax: 2.1 h
[3]; biochemically evaluable patients
  Partial responses (> 50% decrease in repeated CA125 levels): 6 of 13
[3]; clinically evaluable patients
  Stable disease for 6-8 cycles: 5 of 8
[3]; pretreated patients, IP 5-30 mg/m2
  Complete clinical responses: no complete clinical responses
[3]; three by marker and three by clinical parameters
  Patients with progressive disease: six
[4]; female, human
  Patients with nausea and/or vomiting grade I-II: 12 patients
[4]; female, human, 74 cycles
  Platelets toxicity Grade III, worst haematologic toxicity (number): 2
  Platelets toxicity Grade IV, worst haematologic toxicity (number): 0
  WBC toxicity Grade III, worst haematologic toxicity (number): 5
  WBC toxicity Grade IV, worst haematologic toxicity (number): 1
[4]; female, human, ip
  Duration of myelosuppression: < 7 days
  Recommended dose for further phase II trials: 20 mg/m2
[4]
  Bleeding episodes: No bleeding episodes
  Patients with abdominal pain grade I: six
  Patients with nausea and vomiting grade III: three
[4]; ip
  Dose limiting toxicity (DLT): acute hypotension, chills and fever
  Patients with generalized transient skin rash: four
[5]; continuous 24-h IP infusion, ref Plaxe et al, 1998
  Recommended dosage: 3 mg/m2
[5]; ref Abbruzzese et al, 1993, Kantarjian et al, Rowinsky et al, 1994, Van Warmerdam et al, 1995, Hochster et al
  Dose limiting toxicity in most studies: neutropenia
[6]; 10 mg/m2
  MRT: 2.6 h
  T1/2: 1.8 h
[6]; 30 mg/m2
  MRT: 3.4 h
  T1/2: 2.3 h
[6]
  CL: 0.8 L/h/m2
[7]
  Maximum tolerated dose (MTD): 20 mg/m2
[8]; ref Pizao et al
  Cytotoxic concentrations: 13.7 to 229 µg/L
[8]; ref Tanizawa et al
  Cytotoxic concentration: 128 µg/L
[9]
  Cmax: 12100 ng/mL
[10]
  Tmax (time to peak plasma level after start of IP administration): 2.7 ± 1.1 h
[10]; ip
  Dose level from which plasma concentrations required for cytotoxicity in vitro were reached: ≥ 15 mg/m2
  T1/2: 3.7 ± 1.3 h
[10]; ip, 20 mg/m2
  MRT: 6.9 h
[11]
  Inhibition of DNA topoisomerase I: potent inhibitor
[12]; IV administration, ref Herben et al
  Vss for lactone: 94 L/m2
[12]; continuous IP infusion, ref Plaxe et al, 1998
  Terminal T1/2 for peritoneal topotecan: 2.7 h
[13]
  Threshold concentration for cytotoxic activity, continuous exposure: 100 µg/L
[14]; pH 7.4
  Form at equilibrium: open-ring form predominates
[14]; pH < 4.0
  Stability in infusion fluids: stable
[14]; plasma
  Stability in plasma: unstable

From publication PMC2363984 (British Journal of Cancer, 2001)
